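Where inhibition never reached the appropriate level, the endpoint shown equals the highest concentration tested. Otherwise, values were interpolated linearly from a five-concentration, 48-hour dose response in 96-well plates. GI50 = concentration required for 50% inhibition of growth.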 The source made the active and inactive calls. Rule as the data show it: active = GI50 up to about 1.1 µM and inactive = higher.
Experiments:
Test in all cases: growth of human tumour cells (NCI), 48 h
SK-MEL-5 = tested on: SK-MEL-5
HOP-92 = tested on: HOP-92
UACC-257 = tested on: UACC-257
SF-295 = tested on: SF-295
LXFL 529 = tested on: LXFL 529
HCT-15 = tested on: HCT-15
OVCAR-8 = tested on: OVCAR-8
OVCAR-4 = tested on: OVCAR-4
CAKI-1 = tested on: CAKI-1
K562 = tested on: K562
SK-MEL-2 = tested on: SK-MEL-2
SF-539 = tested on: SF-539
HT-29 = tested on: HT-29
HCT-116 = tested on: HCT-116
COLO 205 = tested on: COLO 205
LOX IMVI = tested on: LOX IMVI
RXF 631 = tested on: RXF 631
M14 = tested on: M14
HOP-18 = tested on: HOP-18
HL-60 = tested on: HL-60
SF-268 = tested on: SF-268
RXF 393 = tested on: RXF 393
EKVX = tested on: EKVX
RPMI-8226 = tested on: RPMI-8226
SNB-75 = tested on: SNB-75
U-251 = tested on: U-251
KM-20L2 = tested on: KM-20L2
TK-10 = tested on: TK-10
NCI-H522 = tested on: NCI-H522
NCI-H23 = tested on: NCI-H23
SN12C = tested on: SN12C
HOP-62 = tested on: HOP-62
SR = tested on: SR
IGROV-1 = tested on: IGROV-1
HCC 2998 = tested on: HCC 2998
M19-MEL = tested on: M19-MEL
ACHN = tested on: ACHN
SK-OV-3 = tested on: SK-OV-3
UO-31 = tested on: UO-31
CCRF-CEM = tested on: CCRF-CEM
SW-620 = tested on: SW-620
KM12 = tested on: KM12
SNB-78 = tested on: SNB-78
NCI-H460 = tested on: NCI-H460
OVCAR-5 = tested on: OVCAR-5
OVCAR-3 = tested on: OVCAR-3
786-0 = tested on: 786-0
SNB-19 = tested on: SNB-19
A549 = tested on: A549
UACC-62 = tested on: UACC-62
XF498 = tested on: XF498
NCI-H226 = tested on: NCI-H226
DLD-1 = tested on: DLD-1
DMS-273 = tested on: DMS-273
DMS-114 = tested on: DMS-114
A498 = tested on: A498
SK-MEL-28 = tested on: SK-MEL-28
Malme-3M = tested on: Malme-3M
MOLT-4 = tested on: MOLT-4

Measured: GI50

Nc1nc(Cl)cc(NCCCCCCCCCCNc2cc(Cl)nc(N)n2)n1
active: SK-MEL-5 0.0982 µM | UACC-257 1.05 µM | SF-295 0.301 µM | K562 0.0897 µM | HCT-116 0.196 µM | NCI-H522 0.415 µM | NCI-H23 0.415 µM | ACHN < 0.01 µM | SNB-78 0.0638 µM | OVCAR-5 0.043 µM | UACC-62 0.0226 µM
inactive: HOP-92 28.6 µM | LXFL 529 1.27 µM | OVCAR-8 12.2 µM | OVCAR-4 8.13 µM | CAKI-1 25.6 µM | SK-MEL-2 4.93 µM | SF-539 22.1 µM | HT-29 8.93 µM | COLO 205 24.9 µM | LOX IMVI 1.56 µM | RXF 631 5.3 µM | M14 6.44 µM | HOP-18 58.3 µM | HL-60 2.34 µM | SF-268 3.26 µM | RXF 393 13.9 µM | EKVX 4 µM | RPMI-8226 2.18 µM | SNB-75 22.6 µM | U-251 4.21 µM | KM-20L2 5.21 µM | TK-10 16.5 µM | SN12C 71.9 µM | HOP-62 22 µM | SR 2.62 µM | IGROV-1 22.2 µM | HCC 2998 22.8 µM | M19-MEL 7.4 µM | SK-OV-3 87.3 µM | UO-31 11.3 µM | CCRF-CEM 18.9 µM | SW-620 35.6 µM | KM12 10.9 µM | NCI-H460 5.96 µM | OVCAR-3 1.82 µM | 786-0 21.5 µM | SNB-19 75 µM | A549 3.21 µM | XF498 1.25 µM | NCI-H226 1.99 µM | DLD-1 6.5 µM | DMS-273 4.35 µM
3.55 µM: HCT-15

CC(C)=Cc1cc(C(=O)Nc2ccc(Cl)c(Cl)c2)nc(N)n1
inactive: SK-MEL-5 > 100 µM | HOP-92 > 100 µM | UACC-257 > 100 µM | SF-295 > 100 µM | LXFL 529 > 100 µM | OVCAR-8 > 100 µM | OVCAR-4 > 100 µM | CAKI-1 > 100 µM | K562 > 100 µM | SK-MEL-2 > 100 µM | SF-539 > 100 µM | DMS-114 > 100 µM | HT-29 > 100 µM | HCT-116 > 100 µM | A498 > 100 µM | LOX IMVI > 100 µM | RXF 631 > 100 µM | M14 > 100 µM | HOP-18 78.3 µM | HL-60 > 100 µM | SK-MEL-28 > 100 µM | SF-268 > 100 µM | RXF 393 > 100 µM | EKVX > 100 µM | RPMI-8226 > 100 µM | SNB-75 > 100 µM | U-251 > 100 µM | KM-20L2 > 100 µM | TK-10 > 100 µM | Malme-3M > 100 µM | NCI-H23 > 100 µM | SN12C > 100 µM | HOP-62 > 100 µM | IGROV-1 > 100 µM | HCC 2998 > 100 µM | M19-MEL > 100 µM | ACHN > 100 µM | MOLT-4 > 100 µM | UO-31 > 100 µM | SW-620 > 100 µM | KM12 > 100 µM | SNB-78 > 100 µM | NCI-H460 > 100 µM | OVCAR-5 > 100 µM | OVCAR-3 > 100 µM | 786-0 > 100 µM | SNB-19 > 100 µM | A549 > 100 µM | UACC-62 > 100 µM | XF498 > 100 µM | NCI-H226 > 100 µM | DLD-1 > 100 µM | DMS-273 > 100 µM
> 100 µM: HCT-15
